Patent publication US8598316B2, “Molecules that selectively home to vasculature of pre-malignant dysplastic lesions or malignancies” (priority 2003, dated 2013)

Legend:
squamous cell carcinomas = assay: In vivo homing of individual phage clones to skin tumors of K14-HPV16 mice; set-up: species or system mouse; conditions: phage-displayed peptide, intravenous injection, tumor-bearing K14-HPV16 mice
Source text: (§1) To test homing specificity of the selected peptides, purified phage displaying a single recombinant sequence were intravenously injected into K14HPV16 mice bearing protuberant ear or trunk tumors at 9 to 12 months of age to assess homing to squamous cell carcinomas, or alternatively injected into younger K14HPV16 mice presenting with multifocal dysplasias but no tumors. Both neoplastic tissues and normal control organs were collected and assayed for phage accumulation. Phage displaying the peptide CRAKSKVAC (SEQ ID NO: 9), which appeared with the highest frequency in both the ex vivo and in vivo sequence pools (5 and 15 times, respectively), were 1500-fold enriched in dysplastic skin relative to non-recombinant control phage. However, phage displaying peptide. […] Several other dysplasia-selected clones also differentiated poorly between control tissues and dysplastic skin; seven of the nine dysplasia-selected phage clones appeared to be responsible for the overall enrichment of recombinant phage in control tissues in the final in vivo round of selection as shown in FIG. 1A (right panel), and were not studied further.
(§2) To isolate phage that selectively home to squamous cell carcinomas (SCCs), two rounds of ex vivo panning selections were performed followed by two rounds of in vivo panning in K14-HPV16 mice having tumors histologically confirmed as squamous cell carcinoma grades II-IV (Coussens, supra, 1996). The enrichment rose from 6-fold relative to non-recombinant phage in the second ex vivo round to greater than 70-fold relative to non-recombinant phage in the second in vivo round (the fourth sequential round overall) as shown in FIG. 1B. From 192 sequenced phage clones, fifteen were selected for further analysis based on their frequency (48 from ex vivo round 2, 48 from in vivo round 1, and 96 from in vivo round 2) and their increased prevalence in the in vivo selections. Of these, four clones displaying the following amino acid sequences bound to a K14-HPV16 tumor-derived cell suspension ex vivo: CGKRK (SEQ ID NO: 6), CGTKRKC (SEQ ID NO: 11), CDTAVVEGL (SEQ ID NO: 12) and CDTRL (SEQ ID NO: 7). Phage-displaying the sequence CDTAVVEGL (SEQ ID NO: 12) also were 340-fold enriched in tumors in vivo relative to non-recombinant control phage.

[1] = test system: K14-HPV16 tumor-derived cell suspension; assay: Ex vivo phage binding to tumor cell suspension; type: cell-based, mouse; conditions: phage-displayed peptide
Experimental: (§3) To isolate peptides specific for dysplastic lesions, two rounds of selection were performed ex vivo followed by one round of selection in vivo. […] Phage selections and validations were performed essentially as described in Laakkonen et al., Nat. Med. 8:751-755 (2002).
as §2

[2] = test system: CD31-positive endothelial cells; assay: Immunohistochemical localization of intravenously injected phage (anti-T7 / anti-CD31); type: in vivo, mouse; conditions: phage-displayed peptide, intravenous; 4 to 6 month-old dysplasia-bearing or 9 to 12 month-old tumor-bearing K14-HPV16 mice
Source text: To characterize the nature of the selectivity of the dysplasia- and tumor-homing peptides, K14-HPV16 mice were intravenously injected with cloned phage displaying a particular peptide, and phage localization visualized using histological procedures. Peptide localization was further analyzed with chemically synthesized fluorescein-labeled peptides.
Phage were intravenously injected into 4 to 6 month-old dysplasia-bearing mice with dysplasia-homing phage bearing CSRPRRSEC (SEQ ID NO: 3). In parallel, a set of 9 to 12 month-old tumor-bearing mice were infused with one of the tumor-homing phage CGTKRKC (SEQ ID NO: 11), CGKRK (SEQ ID NO: 6) or CDTRL (SEQ ID NO: 7). Various tissues were collected from each mouse and analyzed by double label immunohistochemical staining using an anti-T7 antibody to detect phage and an anti-CD31 antibody to detect endothelial cells of the vasculature.
(§4) Areas of skin, tumors and various organs were collected and either fixed in formalin, dehydrated through serial alcohols and embedded in paraffin, or directly embedded in OCT medium (Fisher Scientific). K14-HPV16 dysplasia and tumor samples were graded by evaluating hematoxylin & eosin and anti-keratin staining on 5 μm paraffin sections under a light microscope (Coussens et al., supra, 1996). Rat anti-mouse CD31 and rat anti-mouse Meca-32 (BD Pharmingen; San Diego, Calif.) were used for vascular immunostaining on 10 μm frozen sections. Anti-phage staining and biodistribution of fluorescein-labeled peptides were performed essentially as described in Laakkonen et al., supra, 2002.

[3] = test system: dysplastic skin vasculature and tumor vasculature; assay: Localization of intravenously injected fluorescein-labeled peptides in K14-HPV16 mice (Meca-32 staining); type: in vivo, mouse; conditions: intravenous, 10 minutes; for peptide localization in dysplastic skin of tumor-bearing mice / peptide localization in squamous tumor: tumor-bearing K14-HPV16 mice; for peptide localization in dysplastic skin of non-tumor-bearing mice: younger dysplasia-bearing K14-HPV16 mice
Experimental: Both younger dysplasia-bearing and older tumor-bearing K14-HPV16 mice were injected with fluorescein-labeled peptides. After 10 minutes, both normal and neoplastic tissues were collected; tissue sections were prepared and stained with antibodies to both CD31 and a second endothelial marker, the cell-surface antigen Meca-32. Similar results were obtained with the two endothelial marker antibodies; the data for Meca-32 are shown in FIG. 3, in which localization of intravenously infused peptides and antibody was visualized by two-color fluorescence microscopy.
as §4

[4] = test system: breast carcinomas in the MMTV-PyMT transgenic mouse model; assay: Fluorescein-labeled peptide homing, MMTV-PyMT transgenic model; type: in vivo; conditions: intravenous
Experimental: (§5) To analyze homing selectivity, the K14-HPV16 squamous cell cancer-homing peptides, CGKRK (SEQ ID NO: 6) and CDTRL (SEQ ID NO: 7), were analyzed for the ability to home to endothelium in tumors of different tissue origins and in tumors localized to different anatomical locations. In particular, three subcutaneously implanted tumors and two tumors produced in transgenic animal models were examined for accumulation of fluorescein-labeled peptides following intravenous injection
(§6) RIP1-Tag2 mice were used at 12 weeks of age, at which time all mice had pancreatic islet tumors. MMTV-PyMT mice were 4 to 6 months old and carried palpable mammary tumors. Cells for subcutaneous inoculation to produce transplant tumors were cultured in 10% fetal calf serum (FCS) in Dulbecco's Modified Eagle's Media (DMEM). Tumors were generated by subcutaneously injecting 10^6 cells into the chest skin of FVB/n (PDSC5) or Balb/c nude (MDA-MB-435 and C8161) mice. Mice bearing subcutaneous transplant tumors had tumors with an approximate diameter of 1 centimeter. PDSC5 tumors and MDA-MB-435 xenografts reached this size about 9 weeks post-injection while C8161 xenografts reached a size of 1 cm about three weeks post-injection.

[5] = test system: normal skin and control tissues; assay: In vivo phage accumulation in normal skin, hyperplastic skin and control organs; set-up: species or system mouse; conditions: phage-displayed peptide; for homing to normal skin of FVB/n mice: wild-type FVB/n mice; for accumulation in control tissues / normal organs: intravenous injection
Source text: as §1

cultured tumor cells = assay: Binding to cultured tumor cells; type: cell-based
[6] = test system: C8161 human melanoma line; assay: Fluorescein-labeled peptide homing, C8161 xenograft; type: in vivo, mouse; conditions: intravenous, subcutaneous tumor in Balb/c nude mice
Experimental: as §5, §6

[7] = test system: PDSC5, a K14-HPV16 tumor-derived cell line; assay: Fluorescein-labeled peptide homing, PDSC5 subcutaneous transplant tumor; type: in vivo, mouse; conditions: intravenous, subcutaneous tumor in FVB/n mice
Experimental: as §5, §6

[8] = test system: MDA-MB-435 human breast cancer line; assay: Fluorescein-labeled peptide homing, MDA-MB-435 xenograft; type: in vivo, mouse; conditions: for homing to MDA-MB-435 xenograft: intravenous, subcutaneous tumor in Balb/c nude mice
Experimental: as §5, §6

[9] = test system: angiogenic islets (dysplasias) or tumors in the RIP-Tag transgenic mouse model of pancreatic islet cell carcinoma; assay: Fluorescein-labeled peptide homing, RIP-Tag transgenic model; type: in vivo; conditions: intravenous
Experimental: as §5, §6

dysplastic skin lesions = assay: In vivo homing of individual phage clones to dysplastic skin of K14HPV16 mice; set-up: species or system mouse; conditions: phage-displayed peptide, intravenous injection
Experimental: as §3, §1

[10] = test system: hyperplastic skin of 1 to 2 month-old K14-HPV16 mice; assay: Ex vivo phage binding to hyperplastic skin; type: cell-based, mouse; conditions: phage-displayed peptide
mitochondrial membranes = conditions: at a concentration of 10 μM; cited from earlier work

| Substance | binding to K14-HPV16 tumor-derived cell suspension ex vivo [1] | homing to tumor (squamous cell carcinomas) | tissue localization of phage by immunohistochemical staining [2] | peptide localization in dysplastic skin of tumor-bearing mice [3] | peptide localization in squamous tumor [3] | peptide localization in dysplastic skin of non-tumor-bearing mice [3] | homing to angiogenic islets or tumors of RIP-Tag mice [9] | homing to dysplastic skin (dysplastic skin lesions) | accumulation in control tissues / normal organs [5] | other results |
| --- | --- | --- | --- | --- | --- | --- | --- | --- | --- | --- |
| CDTAVVEGL (phage-displayed) | bound |  |  |  |  |  |  |  |  | enrichment in tumors in vivo relative to non-recombinant control phage (squamous cell carcinomas): 340 fold |
| CDTRL [tumor-homing peptide] | bound | variable preference for squamous cell carcinomas and dysplastic lesions | localized to large, dilated vessels throughout the dysplastic and hyperplastic skin | at lower levels | primarily detected in tumor vasculature | not detected in the dysplastic skin of younger non-tumor bearing mice | neither peptide CGKRK (SEQ ID NO: 6) nor CDTRL (SEQ ID NO: 7) homed to angiogenic islets (dysplasias) or tumors |  |  | homing to MMTV-PyMT breast carcinomas [4]: did home to breast carcinomas; affinity for hyperplastic skin ([5]; in vivo, K14-HPV16 mice): little affinity for hyperplastic skin; homing to normal skin of FVB/n mice ([5]; in vivo): no significant homing to normal skin; binding to cultured tumor cells (cultured tumor cells): bind a range of cultured tumor cells; homing to C8161 melanoma xenograft [6]: accumulated only in the melanoma xenografts; homing to PDSC5 transplant tumor [7]: accumulated only in the melanoma xenografts; homing to MDA-MB-435 xenograft [8]: accumulated only in the melanoma xenografts |
| CGKRK [tumor-homing peptide] | bound | marked preference for the tumor | accumulated in tumor tissue | at lower levels | primarily detected in tumor vasculature | not detected in the dysplastic skin of younger non-tumor bearing mice | neither peptide CGKRK (SEQ ID NO: 6) nor CDTRL (SEQ ID NO: 7) homed to angiogenic islets (dysplasias) or tumors | Some homing to dysplastic lesions | very low levels | enrichment in tumors in vivo relative to non-recombinant control phage (squamous cell carcinomas): 80 to 1,000 fold; homing to MMTV-PyMT breast carcinomas [4]: did home to breast carcinomas; binding to cultured tumor cells (cultured tumor cells): bind a range of cultured tumor cells; homing to C8161 melanoma xenograft [6]: homed to cells in each of the three transplant tumors; homing to PDSC5 transplant tumor [7]: homed to cells in each of the three transplant tumors; subcellular localization in vascular cells ([8]; FIG. 4D, endothelial cells (CD31, Meca-32)): localized in the cytoplasm and nuclei of vascular cells; homing to MDA-MB-435 xenograft [8]: homed to cells in each of the three transplant tumors |
| CGTKRKC (phage-displayed) | bound |  | detected to a lesser extent in dysplastic skin of tumor-bearing mice |  |  |  |  |  |  |  |
| CNRRTKAGC (phage-displayed) |  |  |  |  |  |  |  | highly selective for dysplastic skin | did not appreciably home to normal organs |  |
| CRAKSKVAC (phage-displayed) |  |  |  |  |  |  |  |  | accumulated with similar frequency in normal skin, kidney and brain | enrichment in dysplastic skin relative to non-recombinant control phage (dysplastic skin lesions): 1500 fold |
| CSRPRRSEC [dysplasia-homing peptide from CX7C library] |  | little homing to the tumor | accumulated in dysplastic skin | co-localized with Meca-32 in dysplastic skin vasculature | not detected within the squamous tumor | co-localized with Meca-32 in dysplastic skin vasculature | does not recognize pre-malignant lesions | effectively homed to dysplastic chest skin and dysplastic ear skin | did not significantly accumulate in control tissues | enrichment in dysplastic skin relative to non-recombinant control phage (dysplastic skin lesions): ~350 fold; homing to dysplastic skin (dysplastic skin lesions; listed as CSRPRRSRC): maintained the ability to home; binding to hyperplastic skin ex vivo [10]: did not bind to hyperplastic skin; homing to normal skin of FVB/n mice ([5]; in vivo): did not home to normal skin of FVB/n mice |
| D(KLAKLAK)2 |  |  |  |  |  |  |  |  |  | mitochondrial swelling (mitochondrial membranes): marked mitochondrial swelling |
